The source of these data is patent US20250213705A1, “PSMA TARGETING LIGANDS AND METHODS OF USE” (Bright Peak Therapeutics AG, priority 2023, published 2025).

The target in one experiment is human FOLH1 (Homo sapiens (Human), UniProt Q04609). The experiment in a line: SPR analysis of binding kinetics to biotinylated FOLH1 (Biacore 8K). The note with it: ligand PSMA; for Kon: association rate; for koff: dissociation rate; for Kd: kinetic 1:1 binding model. As to the method: The interaction of PSMA-binding variants with human FOLH1 was measured with Surface Plasmon Resonance (SPR) technology. Biotinylated FOLH1 was captured at a concentration of 30 μg/mL onto a Streptavidin chip.
Chain of human FOLH1 (Q04609 whole entry): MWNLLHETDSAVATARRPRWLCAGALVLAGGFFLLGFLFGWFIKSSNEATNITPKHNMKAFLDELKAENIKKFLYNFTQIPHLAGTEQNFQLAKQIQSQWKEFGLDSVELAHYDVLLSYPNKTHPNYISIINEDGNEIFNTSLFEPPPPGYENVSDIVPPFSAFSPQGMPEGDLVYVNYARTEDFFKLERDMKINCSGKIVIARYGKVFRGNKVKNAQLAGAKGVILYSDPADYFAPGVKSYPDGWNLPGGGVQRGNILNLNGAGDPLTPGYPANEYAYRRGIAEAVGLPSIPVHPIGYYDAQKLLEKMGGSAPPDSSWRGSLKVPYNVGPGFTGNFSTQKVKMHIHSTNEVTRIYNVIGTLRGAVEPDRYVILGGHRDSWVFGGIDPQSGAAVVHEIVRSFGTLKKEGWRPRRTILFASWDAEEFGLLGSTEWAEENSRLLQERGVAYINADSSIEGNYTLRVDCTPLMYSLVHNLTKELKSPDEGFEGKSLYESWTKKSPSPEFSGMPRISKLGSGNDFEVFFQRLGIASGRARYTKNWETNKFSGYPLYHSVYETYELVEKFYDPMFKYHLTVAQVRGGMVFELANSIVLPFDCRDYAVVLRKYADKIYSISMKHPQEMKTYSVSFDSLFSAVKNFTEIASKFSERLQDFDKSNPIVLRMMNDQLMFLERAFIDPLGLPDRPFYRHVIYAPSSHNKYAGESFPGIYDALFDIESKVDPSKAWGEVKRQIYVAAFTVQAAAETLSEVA
Binding kinetics of the analytes were measured with a Biacore 8K instrument in two-fold serial dilutions starting at 500 nM down to 1.95 nM in single cycle kinetic measurements. After each cycle, needles were washed with 50% DMSO. To measure the association to the FOLH1 protein, the samples were injected with a flow rate of 30 μL/min for 90 s, followed by 1200 s buffer only to detect the dissociation. The used running buffer was 1×PBS with 0.05% Tween20 and 2% DMSO. The relative response units (RU, Y-axis) are plotted against time (s, X-axis) and analyzed in a kinetic 1:1 binding model.
In a different setup, biotinylated FOLH1 was captured at a concentration of 0.8 μg/mL and the running buffer was 1×PBS with 0.05% Tween20.
(In general: In SPR one partner is held on a chip, and binding of the other changes the refractive index at the surface.)

In experiment [1] the target is Recombinant Human PSMA/FOLH1 Protein (Homo sapiens (Human), UniProt Q04609). Put plainly: Inhibition assay (Amplex Red glutamic acid/glutamate oxidase, NAAG substrate). Format: biochemical. The note with it: Target PSMA, average of N replicates; for IC50: PSMA 5 nM, NAAG 40 μM; for Ki: calculated based on Cheng-Prusoff equation. As to the method:
Amplex™ Red Glutamic Acid/Glutamate Oxidase Assay Kit Catalog number: A12221 (Thermofisher); Recombinant Human PSMA/FOLH1 Protein, CF (rnd systems); N-Acetyl-Asp-Glu (NAAG) (Sigma Aldrich; 96 well half area plate; Enspire plate reader.
Prepare a working solution of 100 μM Amplex® Red reagent containing 0.25 U/mL HRP, 0.08 U/mL L-glutamate oxidase, 0.5 U/mL 1-glutamate-pyruvate transaminase, 200 μM L-alanine and keep protected from light. […] Final concentration is 5 nM. Transfer 10 μl/well of the inhibitor solution previously prepared in a separate 96 wells/plate.
Pipette 20 μl/well of the working solution prepared above. Incubate the reactions for 30 min at 37° C., protected from light. Because the assay is continuous (not terminated), fluorescence may be measured at multiple time points to follow the kinetics of the reactions. Measure the fluorescence in a fluorescence microplate reader using excitation in the range of 530-560 nm and emission detection at ˜590 nm. Ec50s were determined with GraphPad Prism. Ki is calculated based on Cheng-Prusoff equation.

Chain of Recombinant Human PSMA/FOLH1 Protein (Q04609 whole entry): as above

As usually defined, the koff is the rate constant with which the complex falls apart. One may read the Kd as the free concentration of one partner at which half of the binding sites on the other are occupied at equilibrium, for simple one-to-one binding. Higher therefore signals lower affinity. For orientation: IC50 means the concentration that inhibits the measured activity by half. For orientation: Ki means the equilibrium dissociation constant of an inhibitor or competing ligand from its target. For `CC(=O)NCCOCCOCCOCCC(=O)NC[C@H]1CC[C@H](C(=O)N[C@@H](Cc2ccc(-c3ccccc3)cc2)C(=O)NCCCC[C@H](NC(=O)N[C@@H](CCC(=O)O)C(=O)O)C(=O)O)CC1` [Compound 7], on human FOLH1, the Kon was 293000 1.ms, the koff is 0.00167 s⁻¹ and the Kd came out at 5.72 nM. Moreover, in experiment [1], the IC50 came out at 171 nM and the Ki was 1.23 nM.

For the molecule `CC(=O)NCCOCCOCCOCCC(=O)NC[C@H]1CC[C@H](C(=O)N[C@@H](Cc2cccc(C(=O)O)c2)C(=O)NCCCC[C@H](NC(=O)N[C@@H](CCC(=O)O)C(=O)O)C(=O)O)CC1` [Compound 10], the Kd on human FOLH1 is 2.02 nM. Moreover, in experiment [1], the IC50 was 21.3 nM and the Ki is 0.152 nM.

With `CC(=O)NCCOCCOCCOCCC(=O)NC[C@H]1CC[C@H](C(=O)N[C@@H](Cc2c[nH]c3ccc(F)cc23)C(=O)NCCCC[C@H](NC(=O)N[C@@H](CCC(=O)O)C(=O)O)C(=O)O)CC1` [Compound 12], on human FOLH1, the Kon was 250000 1.ms, the koff turned out to be 0.000142 s⁻¹ and the Kd amounted to 0.568 nM. For the same molecule, in experiment [1], the IC50 stood at 41.5 nM and the Ki was 0.297 nM.

For the molecule `CC(=O)NCCOCCOCCOCCC(=O)NC[C@H]1CC[C@H](C(=O)N[C@@H](Cc2ccc(N)cc2)C(=O)NCCCC[C@H](NC(=O)N[C@@H](CCC(=O)O)C(=O)O)C(=O)O)CC1` [Compound 14], on human FOLH1, the Kon is listed as 131000 1.ms, the koff turned out to be 0.000618 s⁻¹ and binding was put at a Kd of 4.71 nM. Besides, in experiment [1], the IC50 is 286 nM and the Ki was 2.05 nM.

On to `CC(=O)NCCOCCOCCOCCC(=O)NC[C@H]1CC[C@H](C(=O)N[C@@H](Cc2ccc(OCc3ccccc3)cc2)C(=O)NCCCC[C@H](NC(=O)N[C@@H](CCC(=O)O)C(=O)O)C(=O)O)CC1` [Compound 16], for which, at human FOLH1, the Kon was 461000 1.ms, the koff is 0.00356 s⁻¹ and the dissociation constant (Kd) came to 7.73 nM. Further, in experiment [1], the IC50 turned out to be 331 nM and the Ki was 2.37 nM.

For `CC(=O)NCCOCCOCCOCCC(=O)NC[C@H]1CC[C@H](C(=O)N[C@@H](Cc2ccccc2)C(=O)NCCCC[C@H](NC(=O)N[C@@H](CCC(=O)O)C(=O)O)C(=O)O)CC1` [Compound 17], on human FOLH1, the Kon is 125000 1.ms, the koff stood at 0.000207 s⁻¹ and the Kd was 1.65 nM. Further, in experiment [1], the half-inhibitory concentration (IC50) came out at 92.6 nM and the inhibition constant Ki was 0.662 nM.

Take `CC(=O)NCCOCCOCCOCCC(=O)NC[C@H]1CC[C@H](C(=O)N[C@@H](Cc2ccc(C(=O)O)cc2)C(=O)NCCCC[C@H](NC(=O)N[C@@H](CCC(=O)O)C(=O)O)C(=O)O)CC1` [Compound 21]: on human FOLH1, the Kon is listed as 183000 1.ms, the koff was 0.00194 s⁻¹ and the Kd is 10.6 nM. In addition, in experiment [1], the IC50 came out at 201 nM and the Ki is 1.44 nM.

As to `CC(=O)NCCOCCOCCOCCC(=O)NC[C@H]1CC[C@H](C(=O)N[C@@H](Cc2ccc3ccccc3c2)C(=O)NCCCC[C@H](NC(=O)N[C@@H](CCCC(=O)O)C(=O)O)C(=O)O)CC1` [Compound 24], at human FOLH1, the Kon is given as 305000 1.ms, the koff was found to be 0.0107 s⁻¹ and the Kd came to 35.2 nM. In experiment [1], the IC50 came out at 3350 nM and the inhibitory constant (Ki) was 24 nM.

Turning to `CC(=O)NCCOCCOCCOCCC(=O)N(CCCOc1ccc(F)cc1F)CC(=O)NC[C@H]1CC[C@H](C(=O)N[C@@H](Cc2ccc3ccccc3c2)C(=O)NCCCC[C@H](NC(=O)N[C@@H](CCC(=O)O)C(=O)O)C(=O)O)CC1` [Compound 39], on human FOLH1, the Kon was 223000 1.ms, the koff is 0.00024 s⁻¹ and binding was characterised by a dissociation constant (Kd) of 1.08 nM. In experiment [1], the IC50 came to 50.5 nM and the Ki was 0.361 nM.

Consider `CC(=O)NCCOCCOCCOCCC(=O)N[C@@H](CCCOc1ccc(F)cc1F)C(=O)NC[C@H]1CC[C@H](C(=O)N[C@@H](Cc2ccc3ccccc3c2)C(=O)NCCCC[C@H](NC(=O)N[C@@H](CCC(=O)O)C(=O)O)C(=O)O)CC1` [Compound 40], for which, on human FOLH1, the Kon was 153000 1.ms; the koff is 0.000249 s⁻¹; the affinity, expressed as Kd, was 1.62 nM. Also, in experiment [1], the IC50 came to 155 nM and the Ki was 1.11 nM.

As to `C=CC[C@H](NC(=O)CCOCCOCCOCCNC(C)=O)C(=O)NC[C@H]1CC[C@H](C(=O)N[C@@H](Cc2ccc3ccccc3c2)C(=O)NCCCC[C@H](NC(=O)N[C@@H](CCC(=O)O)C(=O)O)C(=O)O)CC1` [Compound 41], on human FOLH1, the Kon is recorded as 102000 1.ms, the koff was 0.000199 s⁻¹ and the Kd came to 1.95 nM. In experiment [1], the IC50 was 88.1 nM and the Ki is 0.63 nM.

Molecule `CC(=O)NCCOCCOCCOCCC(=O)NC[C@H]1CC[C@H](C(=O)N[C@@H](Cc2ccc3ccccc3c2)C(=O)NCCCC[C@H](NC(=O)N[C@@H](CCc2n[nH]c(=O)o2)C(=O)O)C(=O)O)CC1` [Compound 48] came in with a dissociation constant Kd on human FOLH1 of 1650 nM. Also, in experiment [1], the IC50 was found to be 10300 nM and the Ki was 73.5 nM.

In the case of `CC(=O)NCCOCCOCCOCCC(=O)NC[C@H]1CC[C@H](C(=O)N[C@@H](Cc2ccc3ccccc3c2)C(=O)NCCCC[C@H](NC(=O)N[C@@H](Cc2ccco2)C(=O)O)C(=O)O)CC1` [Compound 49], the affinity on human FOLH1, expressed as Kd, was 3080 nM. Further, in experiment [1], the 50% inhibitory concentration (IC50) worked out at 16500 nM and the inhibition constant (Ki) is 118 nM.

With `CC(=O)NCCOCCOCCOCCC(=O)N[C@@H](CCCOc1cc(C#N)cc(C#N)c1)C(=O)NCC(=O)N[C@@H](Cc1ccc2ccccc2c1)C(=O)NCCCC[C@H](NC(=O)N[C@@H](CCC(=O)O)C(=O)O)C(=O)O` [Compound 52], on human FOLH1, the Kon is recorded as 291000 1.ms, the koff came out at 0.000326 s⁻¹ and binding was put at a Kd of 1.12 nM. Further, in experiment [1], the IC50 was determined as 26.1 nM and the inhibition constant Ki is 0.187 nM.

Consider `CC(=O)NCCOCCOCCOCCC(=O)N1C[C@H](NC(=O)COc2cc(C#N)cc(C#N)c2)C[C@H]1C(=O)N[C@@H](Cc1ccc2ccccc2c1)C(=O)NCCCC[C@H](NC(=O)N[C@@H](CCC(=O)O)C(=O)O)C(=O)O` [Compound 79], for which, at human FOLH1, the Kon is reported as 137000 1.ms, the off-rate (koff) is 0.000515 s⁻¹ and binding was put at a Kd of 3.76 nM. In experiment [1], the IC50 was determined as 7.79 nM and the Ki is 0.0557 nM.

On to `CC(=O)NCCOCCOCCOCCC(=O)N(CCCCOc1cc(C#N)cc(C#N)c1)CC(=O)N[C@@H](Cc1ccc2ccccc2c1)C(=O)NCCCC[C@H](NC(=O)N[C@@H](CCC(=O)O)C(=O)O)C(=O)O` [Compound 87], for which, at human FOLH1, the Kon is 272000 1.ms, the koff came to 0.000136 s⁻¹ and the Kd stood at 0.5 nM. Besides, in experiment [1], the half-inhibitory concentration (IC50) is 1480 nM and the Ki was 10.6 nM.

Turning to `CC(=O)NCCOCCOCCOCCC(=O)N(CCCCOc1cc(C(F)(F)F)cc(C(F)(F)F)c1)CC(=O)N[C@@H](Cc1ccc2ccccc2c1)C(=O)NCCCC[C@H](NC(=O)N[C@@H](CCC(=O)O)C(=O)O)C(=O)O` [Compound 88], on human FOLH1, the Kon is 215000 1.ms; the koff is 0.000329 s⁻¹; the affinity, expressed as Kd, was 1.53 nM. In experiment [1], the IC50 amounted to 63.3 nM and the Ki is 0.452 nM.

Regarding `CC(=O)NCCOCCOCCOCCC(=O)N1C[C@H](NC(=O)COc2cc(C#N)cc(C#N)c2)C[C@H]1C(=O)NCC(=O)N[C@@H](Cc1ccc2ccccc2c1)C(=O)NCCCC[C@H](NC(=O)N[C@@H](CCC(=O)O)C(=O)O)C(=O)O` [Compound 89], on human FOLH1, the Kon is recorded as 121000 1.ms, the koff was 0.000311 s⁻¹ and the equilibrium dissociation constant (Kd) is 2.58 nM. In experiment [1], the IC50 worked out at 93.5 nM and the Ki was 0.669 nM.
